# Source: patent US10328012B2, “Methods for treating skin” (AVON PRODUCTS, INC., priority 2015, dated 2019)
# Entries after “also recorded” stand apart in the source; their conditions may differ.
# Assays:
# [1] = tested on: human dermal fibroblast (HDF) cells; experiment: HA in human dermal fibroblasts, daily vs pulsed treatment (Example 17); format: cell-based; details: 12 days; pulsed uses half as much active
# Description: A series of experiments was conducted to assess the effects of different treatment regimens of active ingredients shown in Table 9 on the production of hyaluronic acid (HA) in human dermal fibroblast (HDF) cells. Two different treatment regimens were assessed: (1) active ingredient A applied to cells for 12 consecutive days; and (2) active ingredient applied to cells for 2 consecutive days followed by application of media not containing active ingredient for two consecutive days repeatedly until treatment is applied for 12 consecutive days. […] After reaching about 75% confluence, cells were transferred into DMEM media without FBS, and incubated for 4-6 hours. Different wells were assigned to one of treatment regimens (1)-(2) as described above, with six wells allocated to each treatment regimen. All active ingredients were prepared as emulsions and applied directly to the HDF cells. The specific active ingredients used in each of the two treatment regimens are provided below in Table 10. Following treatment, cells were collected and the amount of hyaluronic acid (HA) secreted from the cells was measured using a commercially available HA assay (available from […] Inc., CO).
# [2] = tested on: Human dermal fibroblast cells; experiment: Pro-collagen I secreted by human dermal fibroblasts, HTRF human pro-collagen I kit (Example 1); format: cell-based; details: 0.0001% phytol alone or 1 μM retinol alone for 16 days; decline after day 13 despite continuing treatment
# Description: Human dermal fibroblast cells were grown in a 6-well plate in DMEM media (available from CORNING, N.Y.) supplemented with 10% Fetal Bovine Serum (FBS) and L-glutamine (1.5×10^5 cells/plate) overnight. After reaching about 75% confluence, cells were transferred into DMEM media without FBS and incubated for 4-6 hours. Next, the cells were treated with either 0.0001% phytol or 1 μM retinol. Treatment with either phytol alone, or retinol alone was performed in DMEM media without FBS for 16 days. For sequential treatments, the cells were treated with 0.0001% phytol for 6 days followed by 1 μM retinol for 10 days, or with 1 μM retinol for 6 days, followed by 0.0001% phytol for 10 days. Every other day, media were collected and cells were re-treated with phytol or retinol in the same fashion. After treatment, the amount of collagen secreted into the culture media was determined using the HTRF human pro-collagen I kit (available from CISBIO, Inc).
Structure (SMILES),"production of hyaluronic acid, pulsed treatment compared with daily treatment [1]",pro-collagen I production as a function of treatment time [2]
O=C(O)CO [Glycolic Acid],only slightly less effective,
C/C(=C\CO)CCC[C@H](C)CCC[C@H](C)CCCC(C)C [Phytol],significantly more production of hyaluronic acid,declines; also recorded: plateau in effectiveness over time
"CC1=C(/C=C/C(C)=C/C=C/C(C)=C/CO)C(C)(C)CCC1 [Retinol, reference compound]",significantly more production of hyaluronic acid,declines; also recorded: plateau in effectiveness over time
